Laboratory results published in patent US20230293544A1, “METHODS, DOSAGE REGIMENS, AND COMPOSITIONS FOR TREATING HIDRADENITIS” (PFIZER INC., priority 2022, published 2023).
Values joined by “and” are separate entries in the source; they are usually repeats but may differ in a detail not shown here. Equal values may be shown once.

Tests used:
[1] = test system: human patients with moderate to severe hidradenitis suppurativa (HS); test: Phase 2A double-blind, parallel group study of efficacy vs placebo in hidradenitis suppurativa; format: in vivo
Description: This study provided data on efficacy, safety, tolerability, and pharmacokinetics of the therapeutic agents being examined in the oral treatment of moderate to severe HS. […] This included an up-to-6-week Screening Period, a 16-week Dosing Period and a 4-week Follow-up Period. The study enrolled a total of approximately 192 participants (expected to provide approximately 156 completers). Following the screening period, participants who meet eligibility criteria at the baseline visit were randomly assigned to receive 1 of 6 treatments. One oral dose level of each therapeutic agent, one of which was [(1S)-2,2-difluorocyclo-propyl][(1R,5S)-3-{2-[(1-methyl-1H-pyrazol-4-yl)amino]pyrimidin-4-yl}-3,8-diazabicyclo[3.2.1]oct-8-yl]methanone (45 mg QD), or matching placebo in a 3:1 ratio was investigated. For analysis, placebo groups were combined to yield final therapeutic agent:placebo ratio of 1:1:1:1 for each therapeutic agent and pooled placebo. No more than 30% of enrolled participants were inadequate anti-TNF responders. Participants were stratified according to whether they were an inadequate anti-TNF responder or not.
Additionally, no more than 20% of enrolled participants entered the study on a background of concomitant oral antibiotic therapy for treatment of HS; the dosing regimen (dose and frequency) must have been stable for at least 8 weeks (56 days) prior to the baseline (Day 1) visit and remained stable throughout study participation. Antibiotics taken on an “as needed” (PRN) basis were not considered a stable dose. Participants were stratified according to whether they were on a background of concomitant antibiotic therapy or not. The chronic toxicology package for each asset supported the planned study treatment duration of 16 weeks. Hidradenitis suppurative clinical response, the primary endpoint used, is defined as: […]
at least a 50% reduction in the total abscess and inflammatory nodule (AN) count relative to baseline, and no increase in abscess count, and no increase in draining fistula count.
The above Examples were a phase 2A double-blind, parallel group study assessing the efficacy of PF-06700841, a dual inhibitor of human tyrosine kinase 2 (TYK2) and Janus kinase 1 (JAK1), compared to Placebo in human patients with moderate to severe hidradenitis suppurativa (HS).
This was a randomized, double-blind, parallel-group multi-center study that enrolled approximately 192 participants with moderate to severe HS (with approximately 156 completers). Participants were randomized to PF-06700841 (along with two other treatments studied contemporaneously) and matching placebo in a 3:1 ratio. Each randomized participant was followed for a 16-week dosing period and a 4-week follow-up period. For analysis, placebo groups were combined to yield a 1:1:1:1 ratio for each treatment and pooled placebo. No more than 30% participants were enrolled with inadequate anti-TNF response and no more that 20% of the participants were on background antibiotic therapy, and stratified randomization strategy was adopted for this study. Efficacy data from all randomized participants until week 16 are in the scope of this report.
The primary objective of the study was to evaluate the efficacy and safety of PF-06700841 vs placebo in participants with HS. The primary efficacy endpoint was percentage of participants with HiSCR response (50% reduction from baseline in abscess and inflammatory nodule (AN) count, with no increase in abscess and draining fistula count from baseline) at week 16. […]

[2] = test system: human patients with moderate to severe hidradenitis suppurativa (HS); test: Safety and tolerability in the phase 2A HS study (TEAEs, vital signs, laboratory abnormalities); format: in vivo
Description: The safety and tolerability of PF-06700841 over time was assessed using incidence of treatment-emergent adverse events (TEAEs), vital signs, incidence of specific clinical laboratory abnormalities including but not limited to hemoglobin, neutrophils, platelets, lymphocytes, lipids, eGFR, liver function tests (LFTs) and CPK.
All participants who received at least one dose of randomized study medication and have a baseline are included in the full analysis set (FAS), the population for the efficacy analysis. The safety analysis set (SAS) includes all participants who received at least one dose of investigational product. The HiSCR response data at week 16 comparing active treatment group and placebo group was to be analyzed using the Cochran Mantel Hanzel (CMH) test with Minimum Risk (MR) weight strategy after treating missing data as non-responders, adjusting for the stratification factor of prior anti-TNF failure status. Due to very small number of participants with concomitant use of antibiotics status at baseline in some subgroups, this was not included as stratum factor in the model. Hochberg's step-up procedure was employed to address any multiplicity arising from the analysis of 3 different treatments within the same study and overall familywise error rate was controlled at 0.1 level. All the continuous secondary endpoints were analyzed using ANCOVA model, where missing observation were imputed using multiple imputation (MI) method.

[3] = Population PK analysis in the phase 2A HS study; format: in vivo, human; settings: preliminary population PK analysis
Description: Blood was collected to obtain the PK samples at pre-dose, Weeks 1, 2, 4, 6, 8, and 16, and at 0.5-, 1-, 2-, and 4-hours post-dose on Week 8. The available data was analyzed using population PK modeling.

[4] = test system: patients with moderate to severe HS; settings: cited from earlier work

Molecule: Cn1cc(Nc2nccc(N3C[C@H]4CC[C@@H](C3)N4C(=O)[C@@H]3CC3(F)F)n2)cn1 [PF-06700841, [(1S)-2,2-difluorocyclo-propyl][(1R,5S)-3-{2-[(1-methyl-1H-pyrazol-4-yl)amino]pyrimidin-4-yl}-3,8-diazabicyclo[3.2.1]oct-8-yl]methanone]
- Hazard ratio for time to first flare ([1]; Cox proportional model, vs placebo): 0.4
- Difference from placebo in Skin Pain NRS30 response rate at week 16 ([1]; PGA-Skin Pain NRS at worst, participants with baseline score 3, LOCF): 6.5%
- Probability of flare, Kaplan Meier plot of time to first flare (FIG. 5) ([1]; at 16 weeks, FAS, versus placebo): lowest probability of flare at 16 weeks
- HiSCR response rate at week 16 among Hurley Stage II participants ([1]; baseline Hurley Stage II, week 16): 59.4%
- HiSCR response rate at week 16 among Hurley Stage III participants ([1]; baseline Hurley Stage III, week 16): 40%
- More participants compared to placebo achieving total AN count of 0, 1 or 2 at week 16 ([1]; difference from placebo, week 16): 15.6%
- Difference from placebo (δ) in percentage of participants experiencing at least one flare by week 16 ([1]; flare = at least 25% increase in AN count with minimum increase of 2 relative to baseline): −22.3%
- Percentage of Participant Achieving HISCR Response at Week 16, Overall Response n/N (%) ([1]; overall population, FAS, NRI, week 16, 45 mg QD oral): 51.9% and 27/52 (51.9) %
- Difference from Placebo in percent change from baseline at week 16 for the IHS4 score ([1]; week 16): −14.6%
- HiSCR response over time, plot (FIG. 2) ([1]; week 16, versus placebo): highest response at week 16
- Safety and tolerability ([2]; 16-week dosing): generally safe and well tolerated
- Deaths or cases of herpes zoster/simplex in the study ([2]; in vivo): no deaths or cases of herpes zoster/simplex
- Severity of the majority of treatment-emergent adverse events (TEAEs) ([2]; in vivo): mild and moderate
- Exposures in HS compared to healthy or other patient populations [3]: expected exposures in HS appear to be achieved

Molecule: adalimumab
- Rank-ordered secondary outcomes (lesions, pain, modified Sartorius score) vs placebo ([4]; Week 12, PIONEER II only): significantly greater improvement than the placebo groups
- Clinical response rate (HiSCR) at Week 12, PIONEER I ([4]; adalimumab weekly, PIONEER I, Week 12): 41.8%
- Clinical response rate (HiSCR) at Week 12, PIONEER II ([4]; adalimumab weekly, PIONEER II, Week 12): 58.9%
